Experimental findings from patent US10899754B2, “Modulators of indoleamine 2,3-dioxygenase” (GLAXOSMITHKLINE INTELLECTUAL PROPERTY DEVELOPMENT LIMITED, priority 2016, dated 2021) are described below.

Holding throughout (format): cell-based
For data set [1], the system named is human epithelial HeLa cells. The data set is described as follows: HeLa cytotoxicity assay (CellTiter-Glo). The settings on record: pCC50. The procedure, abridged: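 HeLa cells (5,000/well) stimulated with 10 nM IFN-γ, exposed to 11-point 3-fold compound dilutions for 2 days at 37 °C; viability by CellTiter-Glo ATP luminescence. Normalized to cell-free (100% cytotoxicity) and stimulated-cell DMSO (0%) controls; four-parameter fit gives pCC50.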

The subject of data set [2] is human peripheral blood mononuclear cells (PBMC). In words: PBMC cytotoxicity assay (CellTiter-Glo). The settings on record: 2 days, pCC50. The procedure, abridged:
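Human PBMC (50,000 cells/well) stimulated with IFN-γ 100 ng/ml and LPS 50 ng/ml were exposed to 11-point 3-fold compound dilutions for 2 days at 37 °C, 5% CO2. Viability read by CellTiter-Glo ATP luminescence and normalized to no-cell and stimulated-DMSO controls. XC50 derived by four-parameter fit.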

Data set [3] concerns the target T1, indoleamine 2, 3-dioxygenase (IDO1) (Homo sapiens, UniProt P14902). The data set is described as follows: IDO1 HeLa RapidFire MS assay (kynurenine detection by mass spectrometry). Further details: to induce the expression of indoleamine 2, 3-dioxygenase (IDO1). The settings on record: HeLa cells, pIC50, read-out: IDO1_HELA_PXC50 (converted). Put shortly:
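Compound potency reported as pIC50 from kynurenine/internal-standard ratio (RapidFire MS) in supernatant of IFN-γ-induced (10 nM) HeLa cells, 5,000 per well, after 2 days' treatment with 11-point dilutions. Cytotoxicity in the same format by luminescent ATP detection, reported as pCC50.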

The target in data set [4] is T1, indoleamine 2, 3-dioxygenase (IDO1). The data set is described as follows: IDO1 PBMC RapidFire MS assay (kynurenine detection by mass spectrometry). Further details: to induce the expression of indoleamine 2, 3-dioxygenase (IDO1); host or cells: human PBMC stimulated with IFN-gamma and LPS. Particulars: human PBMC stimulated with IFN-γ and LPS, 2 days, pIC50, read-out: PBMC PXC50 (converted). The procedure, abridged: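 PBMCs (50,000 cells/well) stimulated with IFN-γ 100 ng/ml plus LPS 50 ng/ml, treated with 11-point 3-fold compound series for 2 days at 37° C. Supernatant kynurenine measured by RapidFire MS, normalised to internal standard; parallel cytotoxicity by CellTiter-Glo luminescence; curves fitted for XC50.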

The structures appear in SMILES notation.

T1 sequence (P14902 whole entry): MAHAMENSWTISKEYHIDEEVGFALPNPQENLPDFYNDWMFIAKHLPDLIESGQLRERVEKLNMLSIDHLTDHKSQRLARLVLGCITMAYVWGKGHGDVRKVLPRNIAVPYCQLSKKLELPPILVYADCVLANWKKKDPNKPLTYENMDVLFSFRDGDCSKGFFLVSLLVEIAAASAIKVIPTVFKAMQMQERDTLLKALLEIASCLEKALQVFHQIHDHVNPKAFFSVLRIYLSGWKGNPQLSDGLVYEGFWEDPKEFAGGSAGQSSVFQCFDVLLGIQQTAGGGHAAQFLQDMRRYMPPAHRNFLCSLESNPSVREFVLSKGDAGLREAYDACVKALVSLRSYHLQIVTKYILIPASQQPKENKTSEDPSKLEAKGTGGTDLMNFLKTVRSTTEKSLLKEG

Regarding `CC(C)CN(c1ccc([C@H](C)CC(=O)O)cc1Nc1nnc(C(N)=O)s1)C1CCCCC1` [Example 81, (R)-3-(3-((5-Carbamoyl-1,3,4-thiadiazol-2-yl)amino)-4-(cyclohexyl(isobutyl)amino)phenyl)butanoic], in data set [1], the HELA_IDO1_TOX_PXC50 is less than 5. Also, the “PBMC TOX PXC50” value in data set [2] is on record as less than 5. Also, the IC50 in data set [3] is 7.94 nM; in data set [4], 3.98 nM.
Compound `CC(C)CN(c1ccc(C(C)CC(=O)O)cc1NC1=NC(=O)[C@H](C)N1)C1CCCCC1` (stereo partly drawn) [example 164, 3-{4-[cyclohexyl(2-methylpropyl)amino]-3-{[(5S)-5-methyl-4-oxo-4,5-dihydro-1H-imidazol-2-yl]amino}phenyl}butanoic acid] registered an HELA_IDO1_TOX_PXC50 in data set [1] of less than 5. The “PBMC TOX PXC50” value in data set [2] is less than 5. Besides, the figures for the IC50 in data set [3] and in data set [4] were 631 nM and 316 nM, respectively.
`CC(C)CN(CC(C)C)c1ccc(-c2ccccc2C(=O)O)cc1Nc1nc(C2CC2)ns1` [example 288, 4′-[bis(2-methylpropyl)amino]-3′-[(3-cyclopropyl-1,2,4-thiadiazol-5-yl)amino]-[1,1′-biphenyl]-2-carboxylic acid] gave an HELA_IDO1_TOX_PXC50 in data set [1] of less than 5. Besides, the “PBMC TOX PXC50” value in data set [2] was less than 5. Further, the figures for the IC50 in data set [3] and in data set [4] were 316 nM and 100 nM, respectively.
As for `CC(C)CN(c1ccc([C@H](C)CC(=O)O)cc1Nc1nc(C(F)(F)F)ns1)C1CCN(C(=O)OC(C)C)CC1` [Example 65, (R)-3-(4-(isobutyl(1-(isopropoxycarboxyl)piperidin-4-yl)amino)-3-((3-(trifluoromethyl)-1,2,4-thiadiazol-5-yl)amino)phenyl)butanoic Acid], in data set [1], the HELA_IDO1_TOX_PXC50 is less than 5. For the same compound, the “PBMC TOX PXC50” value in data set [2] was less than 5. Moreover, the results for the IC50 in data set [3] and in data set [4] were 3.98 nM and 1.26 nM, respectively.
For `CC(C)CN(c1ccc([C@H](C)CC(=O)O)cc1Nc1nc(C(F)(F)F)ns1)[C@H]1CC[C@@H](O)CC1` [Example 59, (R)-3-(4-(((1s,4S)-4-hydroxycyclohexyl) (isobutyl)amino)-3-((3-(trifluoromethyl)-1,2,4-thiadiazol-5-yl)amino)phenyl)butanoic Acid], the HELA_IDO1_TOX_PXC50 in data set [1] is given as less than 5. The “PBMC TOX PXC50” value in data set [2] is on record as less than 5. Also, the IC50 was 10 nM in data set [3] and 6.31 nM in data set [4].
`COCCN(c1ccc(-c2ccccc2C(=O)O)cc1Nc1nc2ccccc2o1)C1CCCCC1` [example 284, 3′-[(1,3-benzoxazol-2-yl)amino]-4′-[cyclohexyl(2-methoxyethyl)amino]-[1,1′-biphenyl]-2-carboxylic acid] yielded an HELA_IDO1_TOX_PXC50 in data set [1] of less than 5. In addition, the “PBMC TOX PXC50” value in data set [2] was less than 5. Further, the IC50 was 398 nM in data set [3] and 200 nM in data set [4].
Take `CC(C)CN(c1ccc(C(C)CC(=O)O)cc1NCc1ncccn1)C1CCCCC1` (stereo not shown) [example 160, 3-{4-[cyclohexyl(2-methylpropyl)amino]-3-{[(pyrimidin-2-yl)methyl]amino}phenyl} butanoic acid]: the HELA_IDO1_TOX_PXC50 in data set [1] is less than 5. In data set [2], the “PBMC TOX PXC50” value was less than 5. Moreover, the IC50 in data set [3] and in data set [4] was more than 10000 nM each time.
In data set [1], `CC(C)CN(c1ccc(C(C)(C)CC(=O)O)cc1Nc1nc(C(F)(F)F)ns1)C1CCOCC1` [Example 1, 3-(4-(isobutyl(tetrahydro-2H-pyran-4-yl)amino)-3-((3-(trifluoromethyl)-1,2,4-thiadiazol-5-yl)amino)phenyl)-3-methylbutanoic Acid] came in with an HELA_IDO1_TOX_PXC50 of less than 5. For the same compound, in data set [2], the “PBMC TOX PXC50” value is on record as less than 5. Further, the IC50 is 3.98 nM in data set [3] and 0.794 nM in data set [4].
Consider `COCc1nnc(Nc2cc([C@H](C)CC(=O)O)ccc2N(CC(C)C)C2CCCCC2)[nH]1` [Example 82, (R)-3-(4-(cyclohexyl(isobutyl)amino)-3-((5-(methoxymethyl)-4H-1,2,4-triazol-3-yl)amino)phenyl)butanoic Acid], for which, in data set [1], the HELA_IDO1_TOX_PXC50 is listed as less than 5. Moreover, in data set [2], the “PBMC TOX PXC50” value is less than 5. Moreover, the IC50 is 15.8 nM in data set [3] and 7.94 nM in data set [4].
`COCc1nnc(Nc2cc([C@H](C)CC(=O)O)ccc2N(CC(C)C)C2CCOCC2)[nH]1` [example 213, (3R)-3-(3-{[5-(methoxymethyl)-4H-1,2,4-triazol-3-yl]amino}-4-[(2-methylpropyl)(oxan-4-yl)amino]phenyl)butanoic acid]: the HELA_IDO1_TOX_PXC50 in data set [1] is less than 5. In data set [2], the “PBMC TOX PXC50” value is less than 5. Also, the IC50 is 794 nM in data set [3] and 200 nM in data set [4].
`CO[C@H]1CC[C@H](N(CC(C)C)c2ccc(-c3ccccc3C(=O)O)cc2Nc2nc(C(F)(F)F)ns2)CC1` [Example 111, 4′-(isobutyl((1r,4r)-4-methoxycyclohexyl)amino)-3′-((3-(trifluoromethyl)-1,2,4-thiadiazol-5-yl)amino)-[1,1′-biphenyl]-2-carboxylic Acid] showed an HELA_IDO1_TOX_PXC50 in data set [1] of less than 5. Also, the “PBMC TOX PXC50” value in data set [2] was less than 5. In addition, the IC50 in data set [3] was 10 nM; in data set [4], 3.98 nM.
In data set [1], `CC(C)CN(c1ccc([C@H](C)CC(=O)O)cc1Nc1ccc(Cl)nc1)[C@H]1CC[C@H](O)CC1` [Example 49, (R)-3-(3-((6-chloropyridin-3-yl)amino)-4-(((1r,4R)-4-hydroxycyclohexyl) (isobutyl)amino)phenyl)butanoic Acid] returned an HELA_IDO1_TOX_PXC50 of less than 5. Besides, in data set [2], the “PBMC TOX PXC50” value was less than 5. Moreover, the IC50 in data set [3] was 6.31 nM; in data set [4], 2 nM.
The compound `CC(C)CN(c1ccc(C(C)CC(=O)O)cc1NC1=NC(=O)[C@@H](c2ccccc2)N1)C1CCCCC1` (stereo partly drawn) [example 155, 3-{4-[cyclohexyl(2-methylpropyl)amino]-3-{[(5R)-4-oxo-5-phenyl-4,5-dihydro-1H-imidazol-2-yl]amino}phenyl}butanoic acid] came in with an HELA_IDO1_TOX_PXC50 in data set [1] of less than 5. The “PBMC TOX PXC50” value in data set [2] is listed as less than 5. The IC50 is 1000 nM in data set [3] and 1580 nM in data set [4].
In data set [1], `CC(C)CN(CC(C)C)c1ccc(C2CC2C(=O)O)cc1Nc1nc(Cl)ns1` (stereo not drawn) [example 177, (1R*,2R**)-2-{4-[bis(2-methylpropyl)amino]-3-[(3-chloro-1,2,4-thiadiazol-5-yl)amino]phenyl}cyclo-propane-1-carboxylic acid] showed an HELA_IDO1_TOX_PXC50 of less than 5. In addition, the “PBMC TOX PXC50” value in data set [2] is less than 5. For the same compound, the IC50 was 158 nM in data set [3] and 31.6 nM in data set [4].
Regarding `CC(C)CN(c1ccc(C(C)CC(=O)O)cc1NC1=N[C@@H](C)CO1)C1CCCCC1` (stereo partly drawn) [example 152, 3-{4-[cyclohexyl(2-methylpropyl)amino]-3-{[(4S)-4-methyl-4,5-dihydro-1,3-oxazol-2-yl]amino}phenyl}butanoic acid], in data set [1], the HELA_IDO1_TOX_PXC50 was 5.4. The “PBMC TOX PXC50” value in data set [2] is on record as less than 5. The IC50 in data set [3] and in data set [4] was 3160 nM throughout.
In data set [1], `CC(C)CN(c1ccc(C(C)CC(=O)O)cc1NC1=N[C@H](C)CO1)C1CCCCC1` (stereo partly drawn) [example 151, 3-{4-[cyclohexyl(2-methylpropyl)amino]-3-{[(4R)-4-methyl-4,5-dihydro-1,3-oxazol-2-yl]amino}phenyl}butanoic acid] displayed an HELA_IDO1_TOX_PXC50 of less than 5. Further, the “PBMC TOX PXC50” value in data set [2] is recorded as less than 5. In addition, the figures for the IC50 in data set [3] and in data set [4] were 2000 nM and 2510 nM, respectively.
In data set [1], `CC(C)CN(c1ccc(C(C)CC(=O)O)cc1NC1=NC(=O)[C@@H](C)N1)C1CCCCC1` (stereo partly drawn) [example 163, 3-{4-[cyclohexyl(2-methylpropyl)amino]-3-{[(5R)-5-methyl-4-oxo-4,5-dihydro-1H-imidazol-2-yl]amino}phenyl}butanoic acid] gave an HELA_IDO1_TOX_PXC50 of less than 5. Besides, the “PBMC TOX PXC50” value in data set [2] is less than 5. Moreover, the IC50 in data set [3] is 2000 nM; in data set [4] it was 3160 nM.
In data set [1], `CC(C)CN(c1ccc([C@H](C)Cc2nnn[nH]2)cc1Nc1nc(Cl)ns1)C1CCCCC1` [Example 102, (R)-4-(1-(1H-tetrazol-5-yl)propan-2-yl)-N^2-(3-chloro-1,2,4-thiadiazol-5-yl)-N^1-cyclohexyl-N^1-isobutylbenzene-1,2-diamine] came in with an HELA_IDO1_TOX_PXC50 of less than 5. Moreover, the “PBMC TOX PXC50” value in data set [2] is recorded as less than 5. Further, the figures for the IC50 in data set [3] and in data set [4] were 7.94 nM and 5.01 nM, respectively.
Regarding `CC(C)CN(CC(C)C)c1ccc(C(C)CC(=O)O)cc1NC1CCCCC1` (stereo not shown) [example 157, 3-{4-[bis(2-methylpropyl)amino]-3-(cyclohexylamino)phe-nyl}butanoic acid], the HELA_IDO1_TOX_PXC50 in data set [1] is less than 5. Besides, the “PBMC TOX PXC50” value in data set [2] is on record as less than 5. Also, the IC50 in data set [3] was 1000 nM; in data set [4], 794 nM.
